The nature of series [1]: Cell viability, XTT, 5 h pulse/72 h chase (FIG. 16). It counts as cell-based. (Tetrazolium assays rely on reduction of a dye to a coloured formazan, in cell work by metabolically active cells.)
In series [2] the test system is 20S proteosome. The experiment in a line: Inhibition of LPS stimulated proteosome activity in RAW 264.7 cells (FIG. 18). The settings on record: 5 h pulse/24 h chase, LPS 100 ng/mL. It counts as cell-based.
The subject of series [3] is RAW264.7 cells. It counts as cell-based. The settings on record: for RAW264.7 Cells Competable with xs folate: excess folic acid. As to the method:
In Vitro Concentration-Dependent Cytotoxic Activity. Cells were heavily seeded in 24-well Falcon plates and allowed to form nearly confluent monolayers overnight. Thirty minutes prior to the addition of test article, spent medium was aspirated from all wells and replaced with fresh folate-free RPMI (FFRPMI). […] Treated cells were pulsed for 2 h at 37° C., rinsed 4 times with 0.5 mL of media, and then chased in 1 mL of fresh media up to 70 h. Spent media was aspirated from all wells and replaced with fresh media containing 5 μCi/mL ^3H-thymidine. Following a further 2 h 37° C. incubation, cells were washed 3 times with 0.5 mL of PBS and then treated with 0.5 mL of ice-cold 5% trichloroacetic acid per well. After 15 min, the trichloroacetic acid was aspirated and the cell material solubilized by the addition of 0.5 mL of 0.25 N sodium hydroxide for 15 min. Four hundred and fifty μL of each solubilized sample were transferred to scintillation vials containing 3 mL of Ecolume scintillation cocktail and then counted in a liquid scintillation counter. Final tabulated results were expressed as the percentage of ^3H-thymidine incorporation relative to untreated controls.
As shown in the figures herein, dose-dependent cytotoxicity was measurable, and in most cases, the IC50 values (concentration of drug conjugate required to reduce ^3H-thymidine incorporation into newly synthesized DNA by 50%) were in the low nanomolar range. […] The following table illustrated data for selected compounds against KB cells and against RAW264.7 cells

The conditions of series [4]: FIG. 3B; M109 tumors; TIW 3 μmol/kg, 3 wks. The procedure: Toxicity as Measured by Weight Loss. The percentage weight change was determined in mice (5 mice/group) on selected days post-tumor inoculation (PTI), compared to controls, and graphed.
A short description of series [5]: in vivo. Further details: species or system mice. The settings on record: for MTD: mouse, in vivo, read-out: Single Dose MTDapp.
Setting [6] is: mice, single dose, EC0234 dose limited by solubility.

Molecules are shown by their SMILES. Marks after values point to notes of the source that are not given here. Where only a bound is given, the exact number is not on record here.

For the compound `CC(C)C[C@H](NC(=O)[C@H](Cc1ccccc1)NC(=O)c1cnc(CSSC[C@H](NC(=O)[C@H](CCC(=O)NC[C@H](O)[C@@H](O)[C@H](O)[C@H](O)CO)NC(=O)[C@H](CCC(=O)O)NC(=O)[C@H](CSSCc2cnc(C(=O)N[C@@H](Cc3ccccc3)C(=O)N[C@@H](CC(C)C)B(O)O)cn2)NC(=O)[C@H](CCC(=O)NC[C@H](O)[C@@H](O)[C@H](O)[C@H](O)CO)NC(=O)[C@H](CCC(=O)O)NC(=O)[C@H](CCC(=O)NC[C@H](O)[C@@H](O)[C@H](O)[C@H](O)CO)NC(=O)CC[C@H](NC(=O)c2ccc(NCc3cnc4nc(N)[nH]c(=O)c4n3)cc2)C(=O)O)C(=O)O)cn1)B(O)O` [EC0595], the IC50 (usually the point on the concentration scale where inhibition reaches its midpoint) in series [1] was 13 nM; in series [2] it was approximately 30 nM; in series [3] it was 4 nM. Also, the “RAW264.7 Cells Competable with xs folate” value in series [3] is recorded as “Yes”.
As to `CC[C@]1(O)C[C@H]2CN(CCc3c([nH]c4ccccc34)[C@@](C(=O)OC)(c3cc4c(cc3OC)N(C)[C@H]3[C@@](O)(C(=O)NNC(=O)OCCSSC[C@H](NC(=O)[C@@H](NC(=O)CC[C@H](NC(=O)c5ccc(NCc6cnc7nc(N)[nH]c(=O)c7n6)cc5)C(=O)O)[C@@H](O)[C@H](O)[C@H](O)CO)C(=O)O)[C@H](O)[C@]5(CC)C=CCN6CC[C@]43[C@@H]65)C2)C1` [EC0234, Mono-Saccharo-Folate Vinblastine Conjugate], in series [4], the “gross toxicity (percentage body weight change)” value is “no gross toxicity was observed”. Further, the MTD in series [5] (setting [6]) was 12 µmol/kg.
In the case of `CC(C)C[C@H](NC(=O)[C@H](Cc1ccccc1)NC(=O)c1cnc(CSSC[C@H](NC(=O)[C@H](CCC(=O)NC[C@H](O)[C@@H](O)[C@H](O)[C@H](O)CO)NC(=O)[C@H](CCC(=O)O)NC(=O)[C@H](CCC(=O)NC[C@H](O)[C@@H](O)[C@H](O)[C@H](O)CO)NC(=O)[C@H](CCC(=O)O)NC(=O)[C@H](CCC(=O)NC[C@H](O)[C@@H](O)[C@H](O)[C@H](O)CO)NC(=O)CC[C@H](NC(=O)c2ccc(NCc3cnc4nc(N)[nH]c(=O)c4n3)cc2)C(=O)O)C(=O)O)cn1)B(O)O` [EC0525], the results for the concentration for half-maximal inhibition (IC50) in series [1] and in series [2] were 46 nM and approximately 30 nM, respectively. Further, in series [3], the “RAW264.7 Cells Competable with xs folate” value is “Yes”.
Regarding `CC[C@]1(O)C[C@H]2CN(CCc3c([nH]c4ccccc34)[C@@](C(=O)OC)(c3cc4c(cc3OC)N(C)[C@H]3[C@@](O)(C(=O)NNC(=O)OCCSSC[C@H](NC(=O)[C@@H](NC(=O)[C@H](CC(=O)O)NC(=O)[C@@H](NC(=O)CC[C@H](NC(=O)c5ccc(NCc6cnc7nc(N)[nH]c(=O)c7n6)cc5)C(=O)O)[C@@H](O)[C@H](O)[C@H](O)CO)[C@@H](O)[C@H](O)[C@H](O)CO)C(=O)O)[C@H](O)[C@]5(CC)C=CCN6CC[C@]43[C@@H]65)C2)C1` [EC0246, Bis-Saccharo-Folate Vinblastine Conjugate], the “gross toxicity (percentage body weight change)” value in series [4] was “no gross toxicity was observed”. For the same compound, in series [5] (at 20 μmol/kg single dose), the mice died entry was “**⅓ mice died at 20 μmol/kg”. For the same compound, the “Single Dose MTDapp” value in series [5] (setting [6]) is given as <20** μmol/kg.
Consider `CC[C@]1(O)C[C@H]2CN(CCc3c([nH]c4ccccc34)[C@@](C(=O)OC)(c3cc4c(cc3OC)N(C)[C@H]3[C@@](O)(C(=O)NNC(=O)OCCSSC[C@H](NC(=O)[C@@H](NC(=O)[C@H](CC(=O)O)NC(=O)[C@@H](NC(=O)[C@H](CC(=O)O)NC(=O)[C@@H](NC(=O)CC[C@H](NC(=O)c5ccc(NCc6cnc7nc(N)[nH]c(=O)c7n6)cc5)C(=O)O)[C@@H](O)[C@H](O)[C@H](O)CO)[C@@H](O)[C@H](O)[C@H](O)CO)[C@@H](O)[C@H](O)[C@H](O)CO)C(=O)O)[C@H](O)[C@]5(CC)C=CCN6CC[C@]43[C@@H]65)C2)C1` [EC0263, Tris-Saccharo-Bis-Asp-Folate Vinblastine Conjugate], for which the MTD in series [5] (setting [6]) was more than 20 µmol/kg.

The record behind these values is patent publication US20140073761A1, “CONJUGATES CONTAINING HYDROPHILIC SPACER LINKERS” (priority 2007, published 2014).
